This note sets out measurements from US20250269044A1, “PSMA-TARGETED DENDRIMER NANOPLATFORM FOR CANCER DETECTION AND THERAPY” (Washington State University, priority 2024, published 2025).

≈ marks a conversion by molar mass, not a printed value. Entries after “also recorded” stand apart in the source; their conditions may differ.

The nature of one data set: Aqueous solubility. The data set is classed as physicochemical.
For a further data set, the system named is PC3-PIP PSMA (+) cells. In words: CellTiter-Glo Luminescent Cell Viability assay. In kind it is cell-based. Particulars: Homo sapiens; for viability at 1 µg/mL: 1 μg/ml; for viability at 1 µg/mL / viability at 10 µg/mL / viability at 1000 µg/mL / EC50: 72 h; for viability at 1 µg/mL / viability at 10 µg/mL / viability at 1000 µg/mL: read-out: viable cells; for viability at 10 µg/mL: 10 μg/ml; for viability at 1000 µg/mL: 1000 μg/ml; for IC50: 72 H, equivalent drug bases, read-out: IC50 anti-proliferative activity; for EC50: nonlinear regression with variable slope. The procedure:
Cell viability: 2.5×10^4 PC3-PIP PSMA (+) cells were allowed to adhere to a 96 well plate overnight. The following day, cell media was changed and the PD-CTT1298-Cabo conjugate, at the concentrations tested, was added along with cabozantinib (Cabo) and hydoxy-cabozantinib (Cabo-OH). The cells were allowed to incubate at 37°° C. for 72H. Following incubation, the luminescence of the viable cells was measured using the CellTiter-Glo® Luminescent Cell Viability assay according to manufacturer's instructions. Cell viability (%) was calculated using the luminescence values obtained from the controls used in the experiment. The experiment was performed in triplicate.
Cell viability. 2.5×10^4 PC3-PIP PSMA (+) cells were allowed to adhere to a 96 well plate overnight. The following day, cell media was changed and the PSMA-2DG-D-Cabo dendrimer, at the concentrations tested, were added along with Cabozantinib (Cabo) and Cabozantinib-7-hydoxy derivative (Cabo-OH). The cells were allowed to incubate at 37° C. for 72 h. Following incubation, the luminescence of the viable cells was measured using the CellTiter-Glo® Luminescent Cell Viability assay (Promega, G7570) according to manufacturer's instructions. The luminescence data was collected using a plate reader. Cell viability (%) was calculated using the luminescence values obtained from the controls used in the experiment. The blank cells served as a positive (+) control while sterile 10% DMSO (Fisher Scientific, BP231) served as the negative (−) control. The experiment was performed in triplicate. A similar experiment was carried out with 2DG-D dendrimer at different concentrations (0.1, 1, 10, 100 and 1000 μg/ml) following the same protocol. The experiments were performed in triplicate, with proper controls. Statistical analyses were performed using a TWO-WAY ANOVA T-Test with unequal variances.
A general note: Cellular ATP, detected with luciferase, serves as a proxy for viable cell number.

The next data set concerns the target c-Met (Homo sapiens, UniProt P08581). Description: c-Met inhibition activities (IC50). The data set is classed as biochemical. Conditions: read-out: c-Met inhibitory activity IC50.

Sequence of c-Met (P08581 25-1390): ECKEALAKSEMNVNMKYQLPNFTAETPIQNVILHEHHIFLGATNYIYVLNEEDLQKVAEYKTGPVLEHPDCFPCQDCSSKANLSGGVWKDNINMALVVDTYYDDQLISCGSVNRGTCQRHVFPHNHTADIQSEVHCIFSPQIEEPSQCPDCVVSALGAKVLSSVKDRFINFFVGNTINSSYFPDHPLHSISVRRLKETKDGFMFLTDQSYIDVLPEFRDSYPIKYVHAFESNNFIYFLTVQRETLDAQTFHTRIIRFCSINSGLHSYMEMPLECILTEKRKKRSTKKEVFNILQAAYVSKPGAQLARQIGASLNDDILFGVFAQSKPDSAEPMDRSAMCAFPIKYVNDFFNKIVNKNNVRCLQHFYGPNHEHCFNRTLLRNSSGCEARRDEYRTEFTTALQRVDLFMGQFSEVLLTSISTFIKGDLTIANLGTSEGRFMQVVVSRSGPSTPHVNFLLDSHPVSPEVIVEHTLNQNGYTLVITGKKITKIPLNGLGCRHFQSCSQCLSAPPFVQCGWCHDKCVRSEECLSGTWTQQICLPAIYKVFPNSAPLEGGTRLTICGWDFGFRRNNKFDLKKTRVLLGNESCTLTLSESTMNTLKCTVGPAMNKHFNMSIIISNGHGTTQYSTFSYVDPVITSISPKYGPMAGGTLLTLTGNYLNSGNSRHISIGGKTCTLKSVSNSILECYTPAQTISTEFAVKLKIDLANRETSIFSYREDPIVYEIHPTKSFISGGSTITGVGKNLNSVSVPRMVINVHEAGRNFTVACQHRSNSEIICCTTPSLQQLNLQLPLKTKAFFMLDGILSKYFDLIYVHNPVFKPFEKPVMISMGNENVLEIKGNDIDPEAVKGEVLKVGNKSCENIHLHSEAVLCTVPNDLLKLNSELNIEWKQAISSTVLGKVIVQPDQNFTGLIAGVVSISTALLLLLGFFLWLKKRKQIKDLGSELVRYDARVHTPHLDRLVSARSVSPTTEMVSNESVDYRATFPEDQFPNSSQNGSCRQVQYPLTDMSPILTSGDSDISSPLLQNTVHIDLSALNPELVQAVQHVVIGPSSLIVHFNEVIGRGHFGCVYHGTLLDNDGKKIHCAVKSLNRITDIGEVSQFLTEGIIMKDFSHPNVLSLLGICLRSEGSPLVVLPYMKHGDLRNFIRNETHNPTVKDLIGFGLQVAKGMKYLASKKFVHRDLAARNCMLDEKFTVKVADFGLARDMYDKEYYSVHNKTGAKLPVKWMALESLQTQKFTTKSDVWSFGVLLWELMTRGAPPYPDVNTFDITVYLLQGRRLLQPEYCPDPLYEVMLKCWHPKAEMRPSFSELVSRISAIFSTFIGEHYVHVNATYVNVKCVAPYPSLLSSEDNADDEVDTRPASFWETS

In the case of `COc1cc2nccc(Oc3ccc(NC(=O)C4(C(=O)Nc5ccc(F)cc5)CC4)cc3)c2cc1OC` [Cabo, cabozantinib], in “Aqueous solubility”, the “water solubility (in words)” value is “poor aqueous solubility; also recorded: negligible solubility in water”. Further, in the data set on PC3-PIP PSMA (+) cells, the viability at 1 µg/mL amounted to 96.3 ± 4.58%, the viability at 10 µg/mL was found to be 69.2 ± 0.94%, the viability at 1000 µg/mL is 4.17 ± 0.53% and the IC50 is 24.8 ± 2.27 µg/mL. The response with PC3-PIP PSMA (+) cells was half-maximal at 68 µg/mL (≈ 136 µM) (EC50).
On to `COc1cc2c(Oc3ccc(NC(=O)C4(C(=O)Nc5ccc(F)cc5)CC4)cc3)ccnc2cc1O` [Cabo-OH, hydoxy-cabozantinib], for which the “water solubility (in words)” value in the data set “Aqueous solubility” was “poor aqueous solubility; also recorded: negligible solubility in water”. Besides, on c-Met, the IC50 amounted to 26.3 nM. Further, in the data set on PC3-PIP PSMA (+) cells, the viability at 1 µg/mL is 105 ± 6.38%, the viability at 10 µg/mL worked out at 106 ± 3.09%, the viability at 1000 µg/mL was 7.81 ± 0.24% and the IC50 came out at 77.3 ± 4.35 µg/mL. This compound had an EC50 with PC3-PIP PSMA (+) cells of 69.4 µg/mL (≈ 142 µM).

In general, IC50 refers to the concentration that gives 50% inhibition. Broadly, the EC50 is the concentration needed to bring the measured effect to its halfway point. Low values mean greater potency, high ones weaker potency.
